Reference: ChEMBL document CHEMBL1143311, “Structure-activity relationship and studies on the molecular mechanism of leishmanicidal N,C-coupled arylisoquinolinium salts” (J Med Chem, 2009)
Calls of active or inactive are those of the source. The calls are words filed in the database; no cut-off is given here.

Key:
Macrophage [1] = assay: Reduction of IL6 production in IFN-gamma-stimulated BALB/c mouse peritoneal macrophages infected with Leishmania major MHOM/IL/81/FE/BNI promastigotes at 3 uM after 24 hrs by sandwich ELISA; assay type: functional, cell-based
Cytochrome P450 3A4 = Cytochrome P450 3A4 (Homo sapiens, UniProt P08684); assay: Inhibition of human CYP3A4 at 100 uM by LC/ESI-MS analysis; assay type: ADME
Sequence of Cytochrome P450 3A4 (P08684 whole entry): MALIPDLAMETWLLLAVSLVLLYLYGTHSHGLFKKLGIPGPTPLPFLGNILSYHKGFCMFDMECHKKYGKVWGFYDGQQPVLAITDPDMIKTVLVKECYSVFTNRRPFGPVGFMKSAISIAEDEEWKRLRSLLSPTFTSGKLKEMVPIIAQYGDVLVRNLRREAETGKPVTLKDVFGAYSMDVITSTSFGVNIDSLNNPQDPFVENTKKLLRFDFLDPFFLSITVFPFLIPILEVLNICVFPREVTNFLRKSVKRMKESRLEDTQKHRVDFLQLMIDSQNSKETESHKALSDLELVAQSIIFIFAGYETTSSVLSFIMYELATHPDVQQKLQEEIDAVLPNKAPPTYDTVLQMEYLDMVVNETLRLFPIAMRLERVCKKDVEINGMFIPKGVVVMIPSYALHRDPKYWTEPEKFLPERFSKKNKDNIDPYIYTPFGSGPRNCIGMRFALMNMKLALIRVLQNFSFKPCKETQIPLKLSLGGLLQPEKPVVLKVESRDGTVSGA

Macrophage [2] = assay: Decrease in IL10 secretion in IFN-gamma-stimulated BALB/c mouse peritoneal macrophages infected with Leishmania major MHOM/IL/81/FE/BNI promastigotes at 3 uM after 24 hrs by sandwich ELISA; assay type: functional, cell-based
Cytochrome P450 2C9 = Cytochrome P450 2C9 (Homo sapiens, UniProt P11712); assay: Inhibition of human CYP2C9 at 100 uM by LC/ESI-MS analysis; assay type: ADME
Sequence of Cytochrome P450 2C9 (P11712 whole entry): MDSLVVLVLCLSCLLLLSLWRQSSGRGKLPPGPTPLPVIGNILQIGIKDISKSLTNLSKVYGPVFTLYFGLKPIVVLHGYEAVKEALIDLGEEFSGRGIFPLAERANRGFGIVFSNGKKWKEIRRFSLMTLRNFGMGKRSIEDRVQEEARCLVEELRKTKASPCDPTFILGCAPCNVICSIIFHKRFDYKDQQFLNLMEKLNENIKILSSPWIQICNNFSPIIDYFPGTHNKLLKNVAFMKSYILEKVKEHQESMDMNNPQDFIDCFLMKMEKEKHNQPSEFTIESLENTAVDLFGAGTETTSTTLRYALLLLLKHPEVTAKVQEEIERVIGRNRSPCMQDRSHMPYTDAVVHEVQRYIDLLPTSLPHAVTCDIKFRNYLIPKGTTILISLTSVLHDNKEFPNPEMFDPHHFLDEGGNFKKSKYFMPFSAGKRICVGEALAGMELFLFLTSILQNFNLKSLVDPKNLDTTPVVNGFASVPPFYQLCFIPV

Leishmania major [3] = assay: Antileishmanial activity against Leishmania major MHOM/IL/81/FE/BNI promastigotes infected in BALB/c mouse peritoneal macrophages assessed as decrease in infection rate after 48 hrs by fluorescence microscopy; assay type: functional, organism-based
Macrophage [4] = assay: Reduction of IL6 production in LPS-stimulated BALB/c mouse peritoneal macrophages infected with Leishmania major MHOM/IL/81/FE/BNI promastigotes at 3 uM after 24 hrs by sandwich ELISA; assay type: functional, cell-based
Macrophage [5] = assay: Decrease in IL10 secretion in LPS-stimulated BALB/c mouse peritoneal macrophages infected with Leishmania major MHOM/IL/81/FE/BNI promastigotes at 3 uM after 24 hrs by sandwich ELISA; assay type: functional, cell-based
Albumin = Albumin (Bos taurus, UniProt P02769); assay: Binding affinity to bovine serum albumin by ultrafiltration method; assay type: ADME; conditions: cattle; for fraction unbound: bovine serum albumin, read-out: PPB (converted)
Sequence of Albumin (P02769 whole entry): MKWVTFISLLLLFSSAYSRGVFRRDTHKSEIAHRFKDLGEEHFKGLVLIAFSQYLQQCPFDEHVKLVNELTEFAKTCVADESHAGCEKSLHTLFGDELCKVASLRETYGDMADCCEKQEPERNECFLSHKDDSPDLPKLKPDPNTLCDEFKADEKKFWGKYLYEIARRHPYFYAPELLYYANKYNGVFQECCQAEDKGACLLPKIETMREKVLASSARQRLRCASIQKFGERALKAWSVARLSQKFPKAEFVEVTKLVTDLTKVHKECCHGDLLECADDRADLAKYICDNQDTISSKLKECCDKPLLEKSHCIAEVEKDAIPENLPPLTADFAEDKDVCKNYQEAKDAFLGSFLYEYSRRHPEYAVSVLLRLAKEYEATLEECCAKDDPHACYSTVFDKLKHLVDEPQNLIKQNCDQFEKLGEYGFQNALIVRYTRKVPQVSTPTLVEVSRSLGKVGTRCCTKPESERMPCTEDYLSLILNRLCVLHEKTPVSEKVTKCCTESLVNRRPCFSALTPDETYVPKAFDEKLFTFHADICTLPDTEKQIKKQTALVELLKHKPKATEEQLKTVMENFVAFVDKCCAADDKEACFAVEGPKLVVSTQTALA

[6] = Cytotoxicity against BALB/c mouse DC after 48 hrs by alamar blue assay
Macrophage [7] = assay: Reduction of TNFalpha production in IFN-gamma-stimulated BALB/c mouse peritoneal macrophages infected with Leishmania major MHOM/IL/81/FE/BNI promastigotes at 3 uM after 24 hrs by sandwich ELISA; assay type: functional, cell-based
[8] = Cytotoxicity against mouse NIH/3T3 after 48 hrs by alamar blue assay; assay type: cell-based; conditions: NIH3T3, 48 h
Cytochrome P450 2D6 [9] = target: T1, Cytochrome P450 2D6 (Homo sapiens, UniProt P10635); assay: Inhibition of human CYP2D6 at 1 to 100 uM by LC/ESI-MS analysis; assay type: ADME
T1 sequence (P10635 whole entry): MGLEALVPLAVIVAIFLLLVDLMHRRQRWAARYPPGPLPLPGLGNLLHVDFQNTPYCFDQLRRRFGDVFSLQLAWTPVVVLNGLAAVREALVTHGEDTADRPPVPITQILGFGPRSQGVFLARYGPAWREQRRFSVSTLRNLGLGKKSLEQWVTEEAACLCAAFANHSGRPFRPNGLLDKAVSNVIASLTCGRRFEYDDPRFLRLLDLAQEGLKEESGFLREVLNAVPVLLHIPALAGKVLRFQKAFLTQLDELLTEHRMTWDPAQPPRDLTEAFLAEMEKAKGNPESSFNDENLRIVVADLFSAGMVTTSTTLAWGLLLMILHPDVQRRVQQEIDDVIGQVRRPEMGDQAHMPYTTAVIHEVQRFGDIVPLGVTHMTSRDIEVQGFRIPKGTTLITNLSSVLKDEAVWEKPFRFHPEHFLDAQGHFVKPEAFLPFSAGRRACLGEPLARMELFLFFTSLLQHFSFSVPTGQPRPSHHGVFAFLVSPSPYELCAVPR

[10] = Antiproliferative activity against mouse J774.1 cells after 48 hrs by alamar blue assay; assay type: cell-based; conditions: Mus musculus, J774.1, 48 h
[11] = Ratio of IC50 for BALB/c mouse peritoneal macrophages to EC50 for Leishmania major MHOM/IL/81/FE/BNI promastigotes
Leishmania major [12] = assay: Antileishmanial activity against Leishmania major MHOM/IL/81/FE/BNI promastigotes infected in BALB/c mouse peritoneal macrophages assessed as decrease in infection rate after 48 hrs by fluorescence microscopy in presence of interferon-gamma; assay type: functional, organism-based
[13] = Selectivity index, ratio of IC50 for mouse J774.1 cells to IC50 for Leishmania major MHOM/IL/81/FE/BNI promastigotes; assay type: toxicity; conditions: J774.1 cells, read-out: Ratio IC50
Leishmania major [14] = assay: Antileishmanial activity against Leishmania major MHOM/IL/81/FE/BNI promastigotes by alamar blue assay; assay type: functional, organism-based
Cytochrome P450 2C19 = Cytochrome P450 2C19 (Homo sapiens, UniProt P33261); assay: Inhibition of human CYP2C19 at 100 uM by LC/ESI-MS analysis; assay type: ADME
Sequence of Cytochrome P450 2C19 (P33261 whole entry): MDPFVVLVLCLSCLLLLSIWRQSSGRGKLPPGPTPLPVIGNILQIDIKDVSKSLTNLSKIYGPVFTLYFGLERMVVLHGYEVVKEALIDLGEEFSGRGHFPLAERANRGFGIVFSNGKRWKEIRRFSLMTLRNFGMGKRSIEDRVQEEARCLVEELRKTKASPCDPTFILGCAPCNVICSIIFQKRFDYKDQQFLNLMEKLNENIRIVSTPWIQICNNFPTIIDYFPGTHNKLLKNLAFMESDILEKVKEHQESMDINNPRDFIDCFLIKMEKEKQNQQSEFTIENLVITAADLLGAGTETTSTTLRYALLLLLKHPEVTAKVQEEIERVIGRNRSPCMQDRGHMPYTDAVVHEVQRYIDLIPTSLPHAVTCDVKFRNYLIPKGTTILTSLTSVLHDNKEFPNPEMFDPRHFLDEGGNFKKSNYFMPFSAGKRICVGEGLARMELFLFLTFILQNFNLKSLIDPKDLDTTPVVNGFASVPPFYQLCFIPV

[15] = Cytotoxicity against BALB/c mouse peritoneal macrophages after 48 hrs by alamar blue assay; assay type: cell-based; conditions: Macrophage
Macrophage [16] = assay: Increase in nitric oxide production in LPS-stimulated BALB/c mouse peritoneal macrophages infected with Leishmania major MHOM/IL/81/FE/BNI promastigotes at 3 uM after 48 hrs by […]; assay type: functional, cell-based
Macrophage [17] = assay: Increase in TGFbeta secretion in BALB/c mouse peritoneal macrophages infected with Leishmania major MHOM/IL/81/FE/BNI promastigotes at 3 uM after 24 hrs by sandwich ELISA; assay type: functional, cell-based
Macrophage [18] = assay: Increase in TGFbeta secretion in IFN-gamma-stimulated BALB/c mouse peritoneal macrophages infected with Leishmania major MHOM/IL/81/FE/BNI promastigotes at 3 uM after 24 hrs by sandwich ELISA; assay type: functional, cell-based
Macrophage [19] = assay: Reduction of TNFalpha production in LPS-stimulated BALB/c mouse peritoneal macrophages infected with Leishmania major MHOM/IL/81/FE/BNI promastigotes at 3 uM after 24 hrs by sandwich ELISA; assay type: functional, cell-based
Cytochrome P450 2D6 [20] = target: T1, Cytochrome P450 2D6; assay: Inhibition of human CYP2D6 by Lineweaver-Burke plot; assay type: ADME
Cytochrome P450 2D6 [21] = target: T1, Cytochrome P450 2D6; assay: Inhibition of human CYP2D6 expressed in baculovirus-infected insect cell system; assay type: ADME
Macrophage [22] = assay: Increase in nitric oxide production in BALB/c mouse peritoneal macrophages infected with Leishmania major MHOM/IL/81/FE/BNI promastigotes at 3 uM after 48 hrs by […] relative to noninfected cells; assay type: functional
Macrophage [23] = assay: Increase in nitric oxide production in IFN-gamma-stimulated BALB/c mouse peritoneal macrophages infected with Leishmania major MHOM/IL/81/FE/BNI promastigotes at 3 uM after 48 hrs by […] relative to noninfected cells; assay type: functional

SMILES: COc1cc(OC)c2c(C)[n+](-c3c(C)cccc3C)c(C)cc2c1.F[B-](F)(F)F
- Activity (Macrophage [1]): Active
- Activity (Cytochrome P450 3A4): Active
- Activity (Macrophage [2]): Active
- Activity (Cytochrome P450 2C9): Active
- EC50 (Leishmania major [3]): 0.241 µM
- Activity (Macrophage [4]): Active
- Activity (Macrophage [5]): Active
- fraction unbound (Albumin): 0.538
- IC50 [6]: 8.76 µM
- Activity (Macrophage [7]): Active
- IC50 [8]: 37.6 µM
- Activity (Cytochrome P450 2D6 [9]): Not Active
- IC50 [10]: 27.3 µM
- Ratio IC50/EC50 [11]: 40
- Activity (Leishmania major [12]): Active
- selectivity ratio [13]: 7.82
- IC50 (Leishmania major [14]; Leishmania major): 3.49 µM
- Activity (Cytochrome P450 2C19): Active
- IC50 [15]: 9.67 µM
- Activity (Macrophage [16]): inactive

SMILES: COc1cc(OC)c2c(C)[n+](-c3ccc(OC(C)=O)cc3)c(C)cc2c1
- IC50 [10]: > 100 µM
- IC50 (Leishmania major [14]; Leishmania major): > 100 µM

SMILES: COc1cc(OC)c2c(C)[n+](-c3ccc(C#N)cc3)c(C)cc2c1
- IC50 [10]: > 100 µM
- IC50 (Leishmania major [14]; Leishmania major): > 100 µM

SMILES: COc1cc(OC)c2c(C)[n+](-c3cccc4ccccc34)c(C)cc2c1 [listing 1 of 2 here]
- Activity (Macrophage [1]): Active
- Activity (Macrophage [2]): inactive
- Activity (Macrophage [4]): Active
- Activity (Macrophage [17]): Active
- Activity (Macrophage [5]): inactive
- Activity (Macrophage [7]): Active
- Activity (Macrophage [18]): Active
- Activity (Macrophage [19]): Active
- Activity (Macrophage [16]): inactive

SMILES: COc1cc(OC)c2c(C)[n+](-c3cccc4c3C(=O)c3ccccc3C4=O)c(C)cc2c1
- IC50 [10]: > 100 µM
- IC50 (Leishmania major [14]; Leishmania major): > 100 µM

SMILES: COc1cc(OC)c2c(C)[n+](-c3ccc(C(C)C)cc3C(C)C)c(C)cc2c1
- fraction unbound (Albumin): 0.416
- IC50 [10]: 2.25 µM
- selectivity ratio [13]: 4.17
- IC50 (Leishmania major [14]; Leishmania major): 0.54 µM

SMILES: C[C@@H]1[C@H](O)[C@@H](C)/C=C/C=C/C=C/C=C/C=C/C=C/C=C/[C@H](O[C@@H]2O[C@H](C)[C@@H](O)[C@H](N)[C@@H]2O)C[C@@H]2O[C@](O)(C[C@@H](O)C[C@@H](O)[C@H](O)CC[C@@H](O)C[C@@H](O)CC(=O)O[C@H]1C)C[C@H](O)[C@H]2C(=O)O [AMPHOTERICIN B]
- EC50 (Leishmania major [3]): 0.075 µM
- IC50 [10]: > 70 µM
- Ratio IC50/EC50 [11]: >1000
- selectivity ratio [13]: > 14
- IC50 (Leishmania major [14]; Leishmania major): 5.07 µM
- IC50 [15]: > 70 µM

SMILES: CCc1ccc(-[n+]2c(C)cc3cc(OC)cc(OC)c3c2C)cc1
- fraction unbound (Albumin): 0.475
- IC50 [10]: 4.5 µM
- selectivity ratio [13]: < 1
- IC50 (Leishmania major [14]; Leishmania major): 5.53 µM

SMILES: COc1cc(OC)c2c(C)[n+](-c3cccc4ccccc34)c(C)cc2c1 [listing 2 of 2 here]
- IC50 [10]: 4.29 µM
- selectivity ratio [13]: 2.63
- IC50 (Leishmania major [14]; Leishmania major): 1.63 µM

SMILES: COc1cc(OC)c2c(C)[n+](-c3ccc4scnc4c3)c(C)cc2c1
- fraction unbound (Albumin): 0.671
- IC50 [10]: 63.2 µM
- IC50 (Leishmania major [14]; Leishmania major): > 100 µM

SMILES: C=C[C@H]1C[N@@]2CC[C@H]1C[C@@H]2[C@@H](O)c1ccnc2ccc(OC)cc12 [QUINIDINE]
- Activity (Cytochrome P450 2C9): Active
- Activity (Cytochrome P450 2C19): Active

SMILES: COc1cc(OC)c2c(C)[n+](-c3cccc4cc5ccccc5cc34)c(C)cc2c1
- IC50 [10]: 1.69 µM
- selectivity ratio [13]: < 1
- IC50 (Leishmania major [14]): 1.85 µM

SMILES: COc1cc(OC)c2c(C)[n+](-c3ccc(C(C)(C)C)cc3)c(C)cc2c1
- IC50 [10]: 4.28 µM
- selectivity ratio [13]: 1.6
- IC50 (Leishmania major [14]; Leishmania major): 2.67 µM

SMILES: COc1cc(OC)c2c(C)[n+](-c3ccc4ncccc4c3)c(C)cc2c1
- IC50 [10]: > 100 µM
- IC50 (Leishmania major [14]; Leishmania major): > 100 µM

SMILES: COc1cc2c(c(OC)c1)C(C)N(c1ccc(C(C)C)cc1)C(C)C2 (stereo not given)
- IC50 [10]: 74.7 µM
- IC50 (Leishmania major [14]; Leishmania major): 49.9 µM

SMILES: COc1cc(OC)c2c(C)[n+](-c3cccc4ccccc34)c(C)cc2c1.[O-][Cl+3]([O-])([O-])[O-]
- Activity (Cytochrome P450 3A4): Active
- Activity (Cytochrome P450 2C9): Active
- Activity (Albumin; isolated protein): Active
- Activity (Cytochrome P450 2D6 [9]): Active
- Ki (Cytochrome P450 2D6 [20]): 0.45 µM
- Activity (Cytochrome P450 2C19): Active
- IC50 (Cytochrome P450 2D6 [21]): 0.9 µM

SMILES: COc1cc(OC)c2c(C)[n+](-c3ccc(C(C)C)cc3)c(C)cc2c1.O=C([O-])C(F)(F)F
- Activity (Macrophage [1]): Active
- Activity (Cytochrome P450 3A4): Not Active
- Activity (Macrophage [2]): Active
- Activity (Cytochrome P450 2C9): Not Active
- EC50 (Leishmania major [3]): 0.158 µM
- Activity (Macrophage [4]): Active
- Activity (Macrophage [17]): Active
- Activity (Macrophage [5]): Active
- fraction unbound (Albumin): 0.297
- IC50 [6]: 7.6 µM
- Activity (Macrophage [7]): Active
- fold change (FC) (Macrophage [22]): 2.7
- IC50 [8]: 11.1 µM
- Activity (Cytochrome P450 2D6 [9]): Active
- IC50 [10]: 13.1 µM
- Activity (Macrophage [18]): Active
- Ratio IC50/EC50 [11]: 56
- Activity (Leishmania major [12]): Active
- fold change (FC) (Macrophage [23]): 3
- Ki (Cytochrome P450 2D6 [20]): 0.0547 µM
- selectivity ratio [13]: 6.55
- IC50 (Leishmania major [14]; Leishmania major): 2 µM
- Activity (Cytochrome P450 2C19): Not Active
- IC50 [15]: 8.81 µM
- Activity (Macrophage [16]): inactive
- IC50 (Cytochrome P450 2D6 [21]): 0.109 µM
